From patent publication US4705799A, “Aminomethyl oxooxazolidinyl benzenes useful as antibacterial agents” (E. I. Du Pont de Nemours and Company, priority 1985, dated 1987) come the findings set out here.

In brackets after ≈: the same amount, converted by molar mass.

The subject of series [1] is Staphylococcus epidermidis. Kind of series: In vitro broth dilution minimal inhibitory concentration (standard microdilution method). It counts as cell-based. The settings on record: 24 h, Mueller-Hinton broth, 24-hour, read-out: Microdilution Broth MIC. Background: In broth dilution the organism is exposed to a series of concentrations in liquid medium.
Series [2] concerns Escherichia coli. Described as above. It counts as cell-based. As to conditions: for MIC: Escherichia coli, Mueller-Hinton broth, 24-hour, read-out: Microdilution Broth MIC.
The test system of series [3] is Staphylococcus aureus. The experiment in a line: In vivo efficacy of orally administered compounds in mouse intraperitoneal infections. As to conditions: for ED50: Staphylococcus aureus, po, 168 h, mouse i.p. Staphylococcus aureus infection, oral, dosed at infection and 4 h post-infection, 7 days, read-out: ED50 (50 percent effective dose).
Series [4] has as its system Staphylococcus aureus. The experiment in a line: In vivo efficacy of compounds administered subcutaneously in mouse intraperitoneal infections. The settings on record: sc, 168 h; mouse i.p. Staphylococcus aureus infection; subcutaneous; dosed at infection and 4 h post-infection; 7 days; read-out: ED50 (50 percent effective dose).
For series [5], the system named is Staphylococcus aureus. The experiment in a line: In vitro test, same procedures as microdilution MIC. It counts as cell-based. As to conditions: same procedures as Table 9. The source says:
It is believed that the compound of Example 123 would provide control at higher concentrations or under different conditions.

Series [6] in a line: Water solubility (observation). In kind it is physicochemical.
Series [7] concerns Escherichia coli. Kind of series: In vivo efficacy of orally administered compounds in mouse intraperitoneal infections. As to conditions: 168 h; mouse i.p. Escherichia coli infection; oral; dosed at infection and 4 h post-infection; 7 days; read-out: ED50 (50 percent effective dose).
Series [8] relates to Escherichia coli. The experiment in a line: In vivo efficacy of compounds administered subcutaneously in mouse intraperitoneal infections. As to conditions: sc, 168 h; mouse i.p. Escherichia coli infection; subcutaneous; dosed at infection and 4 h post-infection; 7 days; read-out: ED50 (50 percent effective dose).

Usually MIC stands for the least concentration at which growth counts as inhibited. For orientation: ED50 means the midpoint of the dose-response relation. Consider `CCCCCCN(CC1CN(c2ccc(S(C)(=O)=O)cc2)C(=O)O1)C(=O)OC` (racemic) [Example 123, (dl)-N-hexyl-N-[3-[4-(methylsulfonyl)phenyl]-2-oxooxazolidin-5-ylmethyl]carbamic acid, methyl ester], for which the MIC in series [1] and in series [2] was greater than 200 µg/mL throughout. Besides, the “control of Escherichia coli in vitro” value in series [2] (same procedures as Table 9, result in words) is listed as “no control”. In addition, the median effective dose (ED50) worked out at 27.6 mg/kg in series [3] and 46.6 mg/kg in series [4]. In series [3] (in vivo, see Tables 10 and 11), the “antibacterial effect in vivo” value is “found to exhibit an antibacterial effect in vivo”. Further, the “control of Staphylococcus aureus in vitro” value in series [5] is “no control”.

As for `CC(=O)NCC1CN(c2ccc(NS(C)(=O)=O)cc2)C(=O)O1` (single isomer, unassigned) [Example 151, (l)-N-[3-[4-(Methylsulfonylamino)phenyl]-2-oxooxazolidin-5-ylmethyl]acetamide], the MIC was 200 µg/mL (≈ 611 µM) in series [1] and greater than 200 µg/mL in series [2]. Besides, the figures for the ED50 in series [3] and in series [4] were 62.9 mg/kg and 9.7 mg/kg, respectively. Moreover, in series [6], the water solubility entry is “quite water soluble”.

`CCCC(=O)c1ccc(N2CC(CNC(C)=O)OC2=O)cc1` (stereo not drawn) [Example 138, l-N-[2-oxo-3-[4-(1-oxobutyl)phenyl]-5-oxazolidinylmethyl]acetamide]: the results for the MIC in series [1] and in series [2] were 1 µg/mL (≈ 3.29 µM) and greater than 128 µg/mL, respectively. In addition, the 50% effective dose (ED50) in series [7] is greater than 120 mg/kg; in series [3], 9.6 mg/kg; in series [8], greater than 120 mg/kg; in series [4], 5.1 mg/kg.

For `CC(=O)NCC1CN(c2ccc(C(C)=O)c(C)c2)C(=O)O1` (stereo not drawn) [Example 142], the MIC in series [1] is 1 µg/mL (≈ 3.44 µM); in series [2] it was greater than 128 µg/mL. Further, the ED50 is 52.1 mg/kg in series [7], 1.8 mg/kg in series [3], 52.1 mg/kg in series [8] and 1.8 mg/kg in series [4].

Turning to `CS(=O)(=O)c1ccc(N2CC(CNC(=O)CN=[N+]=[N-])OC2=O)cc1` (stereo not drawn) [Example 158], the minimum inhibitory concentration (MIC) in series [1] is 6.3 µg/mL (≈ 17.8 µM); in series [2] it was 50 µg/mL (≈ 141 µM). In addition, the 50% effective dose (ED50) in series [7] is 56.5 mg/kg; in series [3] it was 11.4 mg/kg; in series [8], 25 mg/kg; in series [4], less than 13 mg/kg.

Consider `CC(=O)c1ccc(N2CC(CNC(=O)C(Cl)Cl)OC2=O)cc1` (stereo not drawn) [Example 172], for which the minimum inhibitory concentration (MIC) was 4 µg/mL (≈ 11.6 µM) in series [1] and greater than 128 µg/mL in series [2]. Besides, the 50% effective dose (ED50) in series [7] was greater than 120 mg/kg; in series [3] it was 10.2 mg/kg; in series [8] it was greater than 120 mg/kg; in series [4], 13.6 mg/kg.
